Assay results from PubChem BioAssay AID328 (DTP/NCI, 2004).
Where “and” joins values, the source holds several entries; their conditions need not be identical. Equal entries are not always repeated. Toxic doses and inconclusive results are not listed. Rule for the calls: active = survival T/C of 150% or more; inactive = T/C below 125% in these data.

System: BDF1 mice, P388 leukemia ip, median survival T/C
Assay: NCI In Vivo Anticancer Drug Screen. Data for tumor model P388 Leukemia (intraperitoneal) in B6D2F1 (BDF1) mice
Details: endpoint: median survival time, higher = longer survival
How it was run: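 Steps: implant the tumour, treat one group with compound and another with vehicle, record survival, then divide treated by control.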

[1] = dose: 25.0 mg/kg/injection, schedule: Q04DX003 (ip), vehicle: saline
[2] = dose: 50.0 mg/kg/injection, schedule: Q04DX003 (ip), vehicle: saline
[3] = dose: 6.25 mg/kg/injection, schedule: Q04DX003 (ip), vehicle: saline
[4] = dose: 12.5 mg/kg/injection, schedule: Q04DX003 (ip), vehicle: saline
[5] = dose: 100.0 mg/kg/injection, schedule: Q04DX003 (ip), vehicle: saline with Tween-80
[6] = dose: 50.0 mg/kg/injection, schedule: Q01DX009 (ip), vehicle: saline
[7] = dose: 50.0 mg/kg/injection, schedule: Q01DX009 (ip), vehicle: saline with Tween-80
[8] = dose: 100.0 mg/kg/injection, schedule: Q01DX009 (ip), vehicle: saline with Tween-80
[9] = dose: 200.0 mg/kg/injection, schedule: Q01DX009 (ip), vehicle: saline with Tween-80

Measured: T/C

CN1CC(C(=O)N2CCCCC2)C=C2c3cccc4[nH]cc(c34)CC21 (stereo not given)
inactive: dose: 3.12 mg/kg/injection, schedule: Q01DX009 (ip), vehicle: saline 95 % of control | dose: 6.25 mg/kg/injection, schedule: Q01DX009 (ip), vehicle: saline 113 % of control | dose: 12.5 mg/kg/injection, schedule: Q01DX009 (ip), vehicle: saline 104 % of control | [1] 116 % of control | [2] 87 % of control

O=C1CN(c2ccccc2)CC(=O)N2C(c3ccccc3)CCCN12 (stereo not given)
inactive: dose: 50.0 mg/kg/injection, schedule: Q01DX005 (ip), vehicle: saline with Tween-80 113 % of control | dose: 100.0 mg/kg/injection, schedule: Q01DX005 (ip), vehicle: saline with Tween-80 97 % of control | dose: 200.0 mg/kg/injection, schedule: Q01DX005 (ip), vehicle: saline with Tween-80 97 % of control

O=C1c2ccccc2CCC12OC2c1ccccc1[N+](=O)[O-] (stereo not given)
inactive: dose: 50.0 mg/kg/injection, schedule: Q04DX003 (ip), vehicle: Klucel (hydroxypropylcellulose) (HPC) 110 % of control | dose: 100.0 mg/kg/injection, schedule: Q04DX003 (ip), vehicle: Klucel (hydroxypropylcellulose) (HPC) 100 % of control | dose: 200.0 mg/kg/injection, schedule: Q04DX003 (ip), vehicle: Klucel (hydroxypropylcellulose) (HPC) 110 % of control

COc1cc2c(c(OC)c1OC)CC1c3c(cc4c(c3-2)OCO4)CCN1C (stereo not given)
inactive: dose: 37.5 mg/kg/injection, schedule: Q01DX009 (ip), vehicle: Klucel (hydroxypropylcellulose) (HPC) 98 % of control | dose: 75.0 mg/kg/injection, schedule: Q01DX009 (ip), vehicle: Klucel (hydroxypropylcellulose) (HPC) 102 % of control | dose: 150.0 mg/kg/injection, schedule: Q01DX009 (ip), vehicle: Klucel (hydroxypropylcellulose) (HPC) 124 % of control

C=CC(OC)OC
inactive: [3] 95 % of control | [4] 100 % of control | [1] 104 % of control

N=C(N)N1CCNc2ccccc2C1
inactive: [5] 99 % of control

COc1cccc(NN)c1
inactive: dose: 25.0 mg/kg/injection, schedule: Q01DX009 (ip), vehicle: saline 113 % of control | [6] 104 % of control | [2] 100 % of control | dose: 100.0 mg/kg/injection, schedule: Q04DX003 (ip), vehicle: saline 91 % of control

O=C(/C=C/c1ccc(OCc2ccccc2)cc1)c1cccc(Cl)c1
inactive: [7] 105 % of control | [8] 96 % of control | [9] 89 % of control

S=C(NCCCN1CCOCC1)NN=C1c2ccccc2-c2ccccc21
inactive: [7] 97 % of control | [8] 91 % of control | [9] 97 % of control

Clc1ccc(-c2nc(-c3ccccc3)c(-c3ccccc3)o2)cc1
inactive: [7] 100 % of control | [8] 111 % of control | [9] 116 % of control

OCc1cncc(F)c1
inactive: [6] 103 % of control | dose: 100.0 mg/kg/injection, schedule: Q01DX009 (ip), vehicle: saline 103 % of control | dose: 200.0 mg/kg/injection, schedule: Q01DX009 (ip), vehicle: saline 103 % of control

COc1cc2nc(C)n(C)c(=O)c2cc1OC
inactive: [7] 101 % of control | [8] 99 % of control | [9] 99 % of control

N#CC1(c2ccc(Cl)cc2)CCC1
inactive: [8] 112 % of control | [9] 108 % of control

S=c1[nH]ccn2cnnc12
inactive: dose: 100.0 mg/kg/injection, schedule: Q01DX001 (ip), vehicle: saline with Tween-80 88 % of control | dose: 200.0 mg/kg/injection, schedule: Q01DX001 (ip), vehicle: saline with Tween-80 106 % of control | dose: 400.0 mg/kg/injection, schedule: Q01DX001 (ip), vehicle: saline with Tween-80 100 % of control

O=C(O)CNC(=O)/C(=C\c1[nH]c(=O)[nH]c(=O)c1Br)NC(=O)c1ccccc1
inactive: [5] 90 % of control | dose: 200.0 mg/kg/injection, schedule: Q04DX003 (ip), vehicle: saline with Tween-80 104 % of control | dose: 400.0 mg/kg/injection, schedule: Q04DX003 (ip), vehicle: saline with Tween-80 100 % of control

CC1(O)CCC2C3CCC4=CC(=O)CCC4C3CCC21C (stereo not given)
inactive: dose: 50.0 mg/kg/injection, schedule: Q01DX009 (ip), vehicle: Klucel (hydroxypropylcellulose) (HPC) 113 % of control | dose: 65.0 mg/kg/injection, schedule: Q01DX009 (ip), vehicle: Klucel (hydroxypropylcellulose) (HPC) 94 % of control | dose: 66.0 mg/kg/injection, schedule: Q01DX009 (ip), vehicle: Klucel (hydroxypropylcellulose) (HPC) 95 % of control and 100 % of control | dose: 100.0 mg/kg/injection, schedule: Q04DX003 (ip), vehicle: other 100 % of control | dose: 200.0 mg/kg/injection, schedule: Q01DX009 (ip), vehicle: Klucel (hydroxypropylcellulose) (HPC) 100 % of control and 118 % of control | dose: 200.0 mg/kg/injection, schedule: Q04DX003 (ip), vehicle: other 115 % of control

COc1cccc(CCC(=O)O)c1
inactive: dose: 100.0 mg/kg/injection, schedule: Q04DX003 (ip), vehicle: gum acacia 100 % of control | dose: 200.0 mg/kg/injection, schedule: Q04DX003 (ip), vehicle: gum acacia 104 % of control | dose: 400.0 mg/kg/injection, schedule: Q04DX003 (ip), vehicle: gum acacia 113 % of control

COC(=O)CCC1(c2ccccc2)CCCC1=O (stereo not given)
inactive: dose: 12.5 mg/kg/injection, schedule: Q01DX009 (ip), vehicle: water 103 % of control | dose: 25.0 mg/kg/injection, schedule: Q01DX009 (ip), vehicle: water 92 % of control | dose: 100.0 mg/kg/injection, schedule: Q01DX009 (ip), vehicle: water 94 % of control | dose: 200.0 mg/kg/injection, schedule: Q04DX003 (ip), vehicle: water 96 % of control | dose: 300.0 mg/kg/injection, schedule: Q04DX003 (ip), vehicle: water 100 % of control | dose: 400.0 mg/kg/injection, schedule: Q04DX003 (ip), vehicle: water 91 % of control

CC(C)(C)NC1=NCCO1
inactive: dose: 25.0 mg/kg/injection, schedule: Q01DX009 (ip), vehicle: saline with Tween-80 100 % of control | [7] 100 % of control | [8] 100 % of control

C[C@@H]1C[C@](O)([C@@H](C)Cl)C(=O)O[C@@H]2CCN3CC=C(COC(=O)[C@]1(C)O)[C@H]23
inactive: dose: 30.0 mg/kg/injection, schedule: Q01DX010 (ip), vehicle: saline 105 % of control

c1ccc(C[n+]2cccc3ccccc32)cc1
inactive: dose: 6.25 mg/kg/injection, schedule: Q01DX009 (ip), vehicle: Klucel (hydroxypropylcellulose) (HPC) 109 % of control | [3] 100 % of control | dose: 12.5 mg/kg/injection, schedule: Q01DX009 (ip), vehicle: Klucel (hydroxypropylcellulose) (HPC) 90 % of control | [4] 100 % of control | dose: 25.0 mg/kg/injection, schedule: Q01DX009 (ip), vehicle: Klucel (hydroxypropylcellulose) (HPC) 90 % of control | [1] 104 % of control

CC1(C)N=C(N)N=C(N)N1c1cccc(OCCOc2cccc(NC(=O)CBr)c2)c1
inactive: dose: 5.0 mg/kg/injection, schedule: Q01DX009 (ip), vehicle: saline 90 % of control and 100 % of control | dose: 5.0 mg/kg/injection, schedule: Q04DX003 (ip), vehicle: saline 100 % of control | dose: 10.0 mg/kg/injection, schedule: Q01DX009 (ip), vehicle: saline 95 % of control and 100 % of control | dose: 10.0 mg/kg/injection, schedule: Q04DX003 (ip), vehicle: saline 100 % of control | dose: 13.0 mg/kg/injection, schedule: Q01DX009 (ip), vehicle: saline 104 % of control and 110 % of control | dose: 20.0 mg/kg/injection, schedule: Q04DX003 (ip), vehicle: saline 100 % of control | dose: 45.0 mg/kg/injection, schedule: Q01DX009 (ip), vehicle: saline 100 % of control

NC(=O)OCC#CCCl
inactive: [7] 100 % of control | [8] 98 % of control | [9] 96 % of control
